Results taken from ChEMBL document CHEMBL1133030, “Synthesis and in vitro evaluation of human FP-receptor selective prostaglandin analogues” (Bioorg Med Chem Lett, 2000).

Assays:
[1] = target: T1, Prostaglandin E2 receptor EP3 subtype (Homo sapiens, UniProt P43115); assay: Displacement of [3H]PGE-2 from human Prostaglandin E receptor EP3 expressed in CHO-KI cells; assay type: cell-based
T1 sequence (P43115 whole entry): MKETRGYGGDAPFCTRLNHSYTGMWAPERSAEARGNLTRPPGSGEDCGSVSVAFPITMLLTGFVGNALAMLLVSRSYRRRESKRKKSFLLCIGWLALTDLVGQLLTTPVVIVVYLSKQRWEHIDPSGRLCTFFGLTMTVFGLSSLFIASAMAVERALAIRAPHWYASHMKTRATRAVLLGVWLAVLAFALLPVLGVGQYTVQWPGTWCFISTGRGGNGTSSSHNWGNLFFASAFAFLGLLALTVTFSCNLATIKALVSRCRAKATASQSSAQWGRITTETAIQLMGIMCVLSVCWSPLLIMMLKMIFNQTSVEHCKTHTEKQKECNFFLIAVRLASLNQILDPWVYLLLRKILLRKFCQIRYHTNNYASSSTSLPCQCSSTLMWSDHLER

[2] = target: T2, Prostaglandin F2-alpha receptor (Homo sapiens, UniProt P43088); assay: Displacement of [3H]PGF-2 from human FP-receptor expressed in CHO-KI cells; assay type: cell-based
Thromboxane A2 receptor [3] = target: T3, Thromboxane A2 receptor (Homo sapiens, UniProt P21731); assay: Displacement of [3H]-U-46,619 from human TP-receptor expressed in CHO-KI cells; assay type: cell-based
T3 sequence (P21731 whole entry): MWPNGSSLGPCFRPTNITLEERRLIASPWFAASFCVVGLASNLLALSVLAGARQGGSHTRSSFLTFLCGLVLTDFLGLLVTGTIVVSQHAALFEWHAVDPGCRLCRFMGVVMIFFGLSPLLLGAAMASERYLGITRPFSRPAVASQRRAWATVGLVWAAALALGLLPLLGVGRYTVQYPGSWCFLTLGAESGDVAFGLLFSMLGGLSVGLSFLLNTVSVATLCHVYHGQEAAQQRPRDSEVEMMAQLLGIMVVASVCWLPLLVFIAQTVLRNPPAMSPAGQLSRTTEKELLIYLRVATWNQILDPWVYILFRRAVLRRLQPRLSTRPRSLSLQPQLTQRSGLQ

[4] = target: T4, Prostaglandin E2 receptor EP1 subtype (Homo sapiens, UniProt P34995); assay: Compound was evaluated for its ability to displace [3H]PGE-2 from human Prostaglandin E receptor EP1 isolated from CHO-KI cells (% of control ligand, 17-phi-PGE2=80%); assay type: cell-based
T4 sequence (P34995 whole entry): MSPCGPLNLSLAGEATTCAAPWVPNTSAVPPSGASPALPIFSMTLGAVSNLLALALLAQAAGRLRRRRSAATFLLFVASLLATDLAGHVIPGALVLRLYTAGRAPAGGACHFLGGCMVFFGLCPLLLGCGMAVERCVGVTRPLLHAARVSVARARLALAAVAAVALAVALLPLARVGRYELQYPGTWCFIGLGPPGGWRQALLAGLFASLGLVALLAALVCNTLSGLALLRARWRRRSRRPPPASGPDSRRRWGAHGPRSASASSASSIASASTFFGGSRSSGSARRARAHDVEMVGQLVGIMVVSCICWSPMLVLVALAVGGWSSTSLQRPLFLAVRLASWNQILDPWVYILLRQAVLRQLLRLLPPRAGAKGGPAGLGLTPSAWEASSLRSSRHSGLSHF

[5] = target: T2, Prostaglandin F2-alpha receptor; assay: Displacement of [3H]PGF2-alpha from human FP-receptor expressed in CHO-KI cells; assay type: cell-based
[6] = target: T1, Prostaglandin E2 receptor EP3 subtype; assay: Functional activity in RAT-1cells, transiently-transfected with human Prostaglandin E receptor EP3 (% of control ligand, sulprostone<50%)
[7] = target: T2, Prostaglandin F2-alpha receptor; assay: Functional activity in RAT-1cells, transiently-transfected with human FP-receptor (% of control ligand, fluprostenol=87%)
Thromboxane A2 receptor [8] = target: T3, Thromboxane A2 receptor; assay: Functional activity in RAT-1cells, transiently-transfected with human TP-receptor (% of control ligand, [3H]-U-46,619=50%)
[9] = target: T4, Prostaglandin E2 receptor EP1 subtype; assay: Functional activity in RAT-1cells, transiently-transfected with human Prostaglandin E receptor EP1 (% of control ligand, 17-phi-PGE2<50%)
[10] = target: T4, Prostaglandin E2 receptor EP1 subtype; assay: Displacement of [3H]PGE-2 from Prostaglandin E receptor EP1 expressed in CHO-KI cells; assay type: cell-based
[11] = target: T1, Prostaglandin E2 receptor EP3 subtype; assay: Compound was evaluated for its ability to displace [3H]-PGE-2 from human Prostaglandin E receptor EP3 isolated from CHO-KI cells; assay type: cell-based
[12] = target: T1, Prostaglandin E2 receptor EP3 subtype; assay: Functional activity in RAT-1cells, transiently-transfected with human Prostaglandin E receptor EP3 (% of control ligand, sulprostone=50%)
[13] = target: T4, Prostaglandin E2 receptor EP1 subtype; assay: Functional activity in RAT-1cells, transiently-transfected with human Prostaglandin E receptor EP1 (% of control ligand, 17-phi-PGE2=80%)
Thromboxane A2 receptor [14] = target: T3, Thromboxane A2 receptor; assay: Functional activity in RAT-1cells, transiently-transfected with human TP-receptor (% of control ligand, [3H]-U-46,619=95%)
[15] = target: T4, Prostaglandin E2 receptor EP1 subtype; assay: Functional activity in RAT-1cells, transiently-transfected with human Prostaglandin E receptor EP1 (% of control ligand, 17-phi-PGE2=100%)
[16] = target: T2, Prostaglandin F2-alpha receptor; assay: Functional activity in RAT-1cells, transiently-transfected with human FP-receptor (% of control ligand, fluprostenol=90%)
[17] = target: T4, Prostaglandin E2 receptor EP1 subtype; assay: Functional activity in RAT-1cells, transiently-transfected with human Prostaglandin E receptor EP1 (% of control ligand, 17-phi-PGE2<20%)
[18] = target: T2, Prostaglandin F2-alpha receptor; assay: Functional activity in RAT-1cells, transiently-transfected with human FP-receptor (% of control ligand, fluprostenol<20%)
[19] = target: T1, Prostaglandin E2 receptor EP3 subtype; assay: Functional activity in RAT-1cells, transiently-transfected with human Prostaglandin E receptor EP3 (% of control ligand, sulprostone<20%)
Thromboxane A2 receptor [20] = target: T3, Thromboxane A2 receptor; assay: Functional activity in RAT-1cells, transiently-transfected with human TP-receptor (% of control ligand, [3H]-U-46,619<20%)
Thromboxane A2 receptor [21] = target: T3, Thromboxane A2 receptor; assay: Functional activity in RAT-1cells, transiently-transfected with human TP-receptor (% of control ligand, [3H]-U-46,619=90%)
[22] = target: T2, Prostaglandin F2-alpha receptor; assay: Functional activity in RAT-1cells, transiently-transfected with human FP-receptor (% of control ligand, fluprostenol=100%)
[23] = target: T1, Prostaglandin E2 receptor EP3 subtype; assay: Functional activity in RAT-1cells, transiently-transfected with human Prostaglandin E receptor EP3(% of control ligand, sulprostone=75%)
Thromboxane A2 receptor [24] = target: T3, Thromboxane A2 receptor; assay: Functional activity in RAT-1cells, transiently-transfected with human TP-receptor (% of control ligand, [3H]-U-46,619=100%)
[25] = target: T2, Prostaglandin F2-alpha receptor; assay: Functional activity in RAT-1cells, transiently-transfected with human FP-receptor (% of control ligand, fluprostenol=50%)
[26] = target: T1, Prostaglandin E2 receptor EP3 subtype; assay: Functional activity in RAT-1cells, transiently-transfected with human Prostaglandin E receptor EP3 (% of control ligand, sulprostone=130%)
[27] = target: T2, Prostaglandin F2-alpha receptor; assay: Functional activity in RAT-1cells, transiently-transfected with human FP-receptor (% of control ligand, fluprostenol=150%)

T2 sequence (P43088 whole entry): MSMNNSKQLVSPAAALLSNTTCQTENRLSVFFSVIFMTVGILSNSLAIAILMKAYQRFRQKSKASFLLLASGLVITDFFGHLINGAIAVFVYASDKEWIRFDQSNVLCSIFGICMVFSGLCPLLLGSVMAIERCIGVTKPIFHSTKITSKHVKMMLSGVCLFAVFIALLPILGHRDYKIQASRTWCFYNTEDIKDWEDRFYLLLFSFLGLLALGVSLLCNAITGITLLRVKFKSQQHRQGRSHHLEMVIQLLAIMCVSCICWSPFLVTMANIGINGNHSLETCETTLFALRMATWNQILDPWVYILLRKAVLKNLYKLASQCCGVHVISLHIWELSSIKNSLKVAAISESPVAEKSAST

Row | Compound | IC50 [1] [µM] | IC50 [2] [µM] | IC50 (Thromboxane A2 receptor [3]) [µM] | IC50 [10] [µM] | also measured
1 | COc1cccc(CC[C@H](O)CC[C@@H]2[C@@H](CCCCCCC(=O)O)[C@@H](O)C[C@H]2O)c1 | > 10 | 1.62 | > 10 | – | IC50 [4]: > 10 µM
2 | O=C(O)CCC/C=C\C[C@@H]1[C@@H](/C=C/[C@@H](O)CCc2cccc(C(F)(F)F)c2)[C@H](O)C[C@@H]1O | – | – | – | – | IC50 [5]: 0.01 µM; EC50 [6]: > 20 µM; EC50 [7]: 0.064 µM; EC50 (Thromboxane A2 receptor [8]): 2.1 µM; EC50 [9]: > 20 µM
3 | COc1ccc(CC[C@H](O)CC[C@@H]2[C@@H](CCCCCCC(=O)O)[C@@H](O)C[C@H]2O)cc1 | > 10 | 0.29 | > 10 | > 10 | –
4 | N#Cc1cccc(CC[C@H](O)CC[C@@H]2[C@@H](CCCCCCC(=O)O)[C@@H](O)C[C@H]2O)c1 | – | 0.21 | > 10 | > 10 | IC50 [11]: > 10 µM
5 | COc1ccccc1CC[C@H](O)CC[C@@H]1[C@@H](CCCCCCC(=O)O)[C@@H](O)C[C@H]1O | – | 5.89 | – | – | –
6 | CCCCC[C@H](O)/C=C/[C@@H]1[C@@H](C/C=C\CCCC(=O)O)[C@@H](O)C[C@H]1O [DINOPROST] | – | – | – | – | EC50 [12]: 2.3 µM; EC50 [13]: 0.6 µM; EC50 (Thromboxane A2 receptor [14]): 1.4 µM
7 | O=C(O)CCCCCC[C@@H]1[C@@H](CC[C@@H](O)CCc2ccccc2)[C@H](O)C[C@@H]1O | > 10 | 0.082 | > 10 | 1.1 | –
8 | O=C(O)CCCCCC[C@@H]1[C@@H](CC[C@@H](O)CCc2ccccc2C(F)(F)F)[C@H](O)C[C@@H]1O | – | 2.14 | – | – | –
9 | O=C(O)CCCCCC[C@@H]1[C@@H](CC[C@@H](O)CCc2cccc(F)c2)[C@H](O)C[C@@H]1O | 3.7 | 0.042 | > 10 | 10 | –
10 | O=C(O)CCCCCC[C@@H]1[C@@H](CC[C@@H](O)CCc2cccc(C(F)(F)F)c2)[C@H](O)C[C@@H]1O | > 10 | 0.0086 | > 10 | > 10 | IC50 [5]: 0.0086 µM; EC50 [15]: 30 µM; EC50 [6]: > 20 µM; EC50 [16]: 0.085 µM; EC50 (Thromboxane A2 receptor [8]): > 20 µM
11 | O=C(O)CCCCCC[C@@H]1[C@@H](CC[C@@H](O)CCc2ccccc2F)[C@H](O)C[C@@H]1O | > 10 | 0.076 | > 10 | 3.1 | –
12 | CCCCC(C)(C)[C@H](O)CC[C@@H]1[C@@H](CCCCCCC(=O)O)[C@@H](O)C[C@H]1O | – | – | – | – | EC50 [17]: > 20 µM; IC50 [5]: > 1 µM; EC50 [18]: > 20 µM; EC50 [19]: > 20 µM; EC50 (Thromboxane A2 receptor [20]): > 20 µM
13 | O=C(O)CCCCCC[C@@H]1[C@@H](CC[C@@H](O)CCc2ccc(C(F)(F)F)cc2)[C@H](O)C[C@@H]1O | – | 3.63 | – | – | –
14 | CCc1cccc(CC[C@H](O)CC[C@@H]2[C@@H](CCCCCCC(=O)O)[C@@H](O)C[C@H]2O)c1 | > 10 | 0.54 | > 10 | > 10 | –
15 | O=C(O)CCCCCC[C@@H]1[C@@H](CC[C@@H](O)COc2cccc(Cl)c2)[C@H](O)C[C@@H]1O | – | – | – | – | IC50 [5]: 0.001 µM; EC50 (Thromboxane A2 receptor [21]): 8 µM; EC50 [15]: 19 µM; EC50 [6]: > 20 µM; EC50 [22]: 0.009 µM
16 | Cc1ccc(CC[C@H](O)CC[C@@H]2[C@@H](CCCCCCC(=O)O)[C@@H](O)C[C@H]2O)cc1 | – | 4.4 | – | – | –
17 | Cc1ccccc1CC[C@H](O)CC[C@@H]1[C@@H](CCCCCCC(=O)O)[C@@H](O)C[C@H]1O | > 10 | 0.63 | > 10 | 10 | –
18 | O=C(O)CCC/C=C\C[C@@H]1[C@@H](/C=C/[C@@H](O)COc2cccc(Cl)c2)[C@H](O)C[C@@H]1O [CLOPROSTENOL] | – | – | – | – | EC50 [23]: 5 µM; EC50 (Thromboxane A2 receptor [24]): 2.4 µM; EC50 [13]: 0.76 µM
19 | CCCCC[C@H](O)CC[C@@H]1[C@@H](CCCCCCC(=O)O)[C@@H](O)C[C@H]1O | – | – | – | – | IC50 [5]: 0.522 µM; EC50 [6]: > 20 µM; EC50 (Thromboxane A2 receptor [24]): 30 µM; EC50 [25]: 5 µM; EC50 [9]: > 10 µM
20 | CCCCC(C)(C)[C@H](O)/C=C/[C@@H]1[C@@H](C/C=C\CCCC(=O)O)[C@@H](O)C[C@H]1O | – | – | – | – | EC50 [26]: 2 µM; IC50 [5]: 0.016 µM; EC50 [27]: 0.09 µM; EC50 [13]: 0.3 µM; EC50 (Thromboxane A2 receptor [14]): 0.024 µM
21 | O=C(O)CCCCCC[C@@H]1[C@@H](CC[C@@H](O)CCc2ccc(F)cc2)[C@H](O)C[C@@H]1O | > 10 | 0.21 | > 10 | 3.45 | –
